# From patent publication US10238632B2, “Sigma receptor-binding agent” (FUJIFILM Toyama Chemical Co., Ltd., priority 2015, dated 2019)
# Assays:
# BZD (central) receptor = assay: Receptor binding assay, BZD (central); details: rat cerebral cortex, compound A at 10 μM, [3H] flunitrazepam (0.4 nM), 60 min./4° C.
# Protocol: (§1) The compound A was tested for ability to bind to 21 types of receptors. […]
# (§2) The inhibition rate of the compound A for each radioligand was calculated by the following equation. 100−([measured specific binding]/[control specific binding]×100) Equation: […]
# (§3) In the equation, the measured specific binding indicates the amount of binding radioactivity of each radioligand under the presence of the compound A and the corresponding reference compound, and the control specific binding indicates the amount of binding radioactivity of each radioligand under the presence of the corresponding reference compound.
# M2 (h) receptor = target: T1, M2 (h) receptor (Homo sapiens, UniProt P08172); assay: Receptor binding assay, M2 (h); details: human recombinant (CHO cells), compound A at 10 μM, [3H] AF-DX 384 (2 nM), 60 min./22° C.
# T1 construct: expressed in transfected cells; host or cells: CHO cells
# T1 sequence (P08172 whole entry): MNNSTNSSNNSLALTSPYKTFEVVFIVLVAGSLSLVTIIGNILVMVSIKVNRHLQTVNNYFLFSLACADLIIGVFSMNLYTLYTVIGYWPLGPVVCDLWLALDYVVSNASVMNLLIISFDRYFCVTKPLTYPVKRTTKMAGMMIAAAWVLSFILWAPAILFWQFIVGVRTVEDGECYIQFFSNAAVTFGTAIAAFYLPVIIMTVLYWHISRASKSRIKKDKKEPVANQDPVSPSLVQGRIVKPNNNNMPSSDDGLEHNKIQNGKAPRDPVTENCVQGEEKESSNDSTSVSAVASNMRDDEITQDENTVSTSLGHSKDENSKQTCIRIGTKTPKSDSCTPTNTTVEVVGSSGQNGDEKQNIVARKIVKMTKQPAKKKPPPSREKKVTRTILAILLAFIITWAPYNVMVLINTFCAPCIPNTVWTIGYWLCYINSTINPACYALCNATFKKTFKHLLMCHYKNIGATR
# Protocol: as §1, §2, §3
# [1] = target: T2, sigma-1 receptors expressed in Jurkat cells (Homo sapiens, UniProt Q99720); assay: Identification of sigma-1 receptor inhibition constant; assay type: binding; details: 15 nM [3H] (+)-pentazocine, 37° C. for 120 minutes, Cheng-Prusoff equation
# T2 construct: In the sigma-1 receptors expressed in Jurkat cells; endogenous in cells; host or cells: Jurkat cells
# T2 sequence (Q99720 whole entry): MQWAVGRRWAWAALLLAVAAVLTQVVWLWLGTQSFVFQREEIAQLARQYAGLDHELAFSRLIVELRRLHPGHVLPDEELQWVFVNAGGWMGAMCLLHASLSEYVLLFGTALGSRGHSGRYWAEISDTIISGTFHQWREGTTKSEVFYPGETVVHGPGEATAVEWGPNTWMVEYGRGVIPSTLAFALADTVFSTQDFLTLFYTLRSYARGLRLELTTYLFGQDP
# Protocol: The sigma-1 receptor inhibition constant of the compound A (Ki value) was identified. The test was conducted by a method described below in accordance with Ganapathy, M. E. (1999).
# (§4) (+)-pentazocine. The reaction was conducted at 37° C. for 120 minutes. The inhibition rate was calculated in the same manner as described in Test Example 1. The Ki value was identified in accordance with the Cheng-Prusoff equation by calculating IC50 based on nonlinear regression analysis.
# [2] = tested on: α2 (non-selective) receptor; assay: Receptor binding assay, α2 (non-selective); details: rat cerebral cortex, compound A at 10 μM, [3H] RX 821002 (0.5 nM), 30 min./22° C.
# Protocol: as §1, §2, §3
# [3] = target: T3, sigma-2 receptors expressed in Jurkat cells (Homo sapiens, UniProt Q5BJF2); assay: Identification of sigma-2 receptor inhibition constant; assay type: binding; details: 25 nM [3H] DTG under the presence of 1 μM (+)-pentazocine, room temperature for 60 minutes, Cheng-Prusoff equation
# T3 construct: In the sigma-2 receptors expressed in Jurkat cells; endogenous in cells; host or cells: Jurkat cells
# T3 sequence (Q5BJF2 whole entry): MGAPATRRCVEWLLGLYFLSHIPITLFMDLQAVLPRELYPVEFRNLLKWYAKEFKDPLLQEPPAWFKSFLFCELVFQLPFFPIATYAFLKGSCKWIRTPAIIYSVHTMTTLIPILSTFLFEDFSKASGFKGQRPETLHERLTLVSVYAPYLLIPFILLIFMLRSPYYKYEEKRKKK
# Protocol: The sigma-2 receptor inhibition constant of the compound A (Ki value) was identified. The test was conducted by a method described below in accordance with Ganapathy, M. E. (1999).
# as §4, with “DTG under the presence of 1 μM (+)-pentazocine.” for “(+)-pentazocine.”, “room temperature” for “37° C.”, “60” for “120”
# TH receptor = assay: Receptor binding assay, TH; details: rat liver, compound A at 10 μM, [125I] T3 (0.1 nM), 18 h/4° C.
# Protocol: as §1, §2, §3
# M1 receptor = target: T4, M1 receptor (Rattus norvegicus, UniProt P08482); assay: Receptor binding assay, M1; details: rat cerebral cortex, compound A at 10 μM, [3H] pirenzepine (1 nM), 60 min./22° C., read-out: Inhibition rate of compound A for radioligand (%)
# T4 construct: rat cerebral cortex; from tissue; host or cells: rat cerebral cortex
# T4 sequence (P08482 whole entry): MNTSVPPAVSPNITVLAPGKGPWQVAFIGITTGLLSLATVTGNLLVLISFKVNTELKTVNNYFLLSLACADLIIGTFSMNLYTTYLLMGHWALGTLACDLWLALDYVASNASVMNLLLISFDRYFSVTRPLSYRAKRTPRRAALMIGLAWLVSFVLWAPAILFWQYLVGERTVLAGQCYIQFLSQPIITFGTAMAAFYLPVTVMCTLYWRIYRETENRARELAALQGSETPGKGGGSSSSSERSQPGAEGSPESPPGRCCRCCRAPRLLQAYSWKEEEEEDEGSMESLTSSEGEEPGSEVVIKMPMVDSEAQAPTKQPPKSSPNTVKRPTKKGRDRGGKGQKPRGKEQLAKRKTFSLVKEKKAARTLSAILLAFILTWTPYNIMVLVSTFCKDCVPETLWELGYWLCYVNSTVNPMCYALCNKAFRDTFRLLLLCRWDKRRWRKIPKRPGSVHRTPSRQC
# Protocol: as §1, §2, §3
# H1 (h) receptor = target: T5, H1 (h) receptor (Homo sapiens, UniProt P35367); assay: Receptor binding assay, H1 (h); details: human recombinant (HEK-293 cells), compound A at 10 μM, [3H] pyrilamine (3 nM), 60 min./22° C., read-out: Inhibition rate of compound A for radioligand (%)
# T5 construct: expressed in transfected cells; host or cells: HEK-293 cells
# T5 sequence (P35367 whole entry): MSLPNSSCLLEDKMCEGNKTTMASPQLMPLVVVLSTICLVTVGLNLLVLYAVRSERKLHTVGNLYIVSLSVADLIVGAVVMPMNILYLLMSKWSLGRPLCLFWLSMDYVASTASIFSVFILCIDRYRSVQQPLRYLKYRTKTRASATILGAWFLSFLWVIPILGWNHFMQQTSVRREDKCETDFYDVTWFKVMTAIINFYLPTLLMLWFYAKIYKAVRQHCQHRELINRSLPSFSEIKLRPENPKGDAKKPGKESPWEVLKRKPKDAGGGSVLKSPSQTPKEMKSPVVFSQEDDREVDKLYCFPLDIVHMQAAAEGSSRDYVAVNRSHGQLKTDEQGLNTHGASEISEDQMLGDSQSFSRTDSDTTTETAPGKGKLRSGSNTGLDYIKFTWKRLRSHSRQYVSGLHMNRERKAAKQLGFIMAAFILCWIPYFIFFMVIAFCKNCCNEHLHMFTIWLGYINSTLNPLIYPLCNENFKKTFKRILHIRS
# Protocol: as §1, §2, §3
# AT1 (h) receptor = target: T6, AT1 (h) receptor (Homo sapiens, UniProt P30556); assay: Receptor binding assay, AT1 (h); details: human recombinant (CHO cells), compound A at 10 μM, [125I] [Sar1, Ile5]-AT II (0.05 nM), 60 min./37° C., read-out: Inhibition rate of compound A for radioligand (%)
# T6 construct: expressed in transfected cells; host or cells: CHO cells
# T6 sequence (P30556 whole entry): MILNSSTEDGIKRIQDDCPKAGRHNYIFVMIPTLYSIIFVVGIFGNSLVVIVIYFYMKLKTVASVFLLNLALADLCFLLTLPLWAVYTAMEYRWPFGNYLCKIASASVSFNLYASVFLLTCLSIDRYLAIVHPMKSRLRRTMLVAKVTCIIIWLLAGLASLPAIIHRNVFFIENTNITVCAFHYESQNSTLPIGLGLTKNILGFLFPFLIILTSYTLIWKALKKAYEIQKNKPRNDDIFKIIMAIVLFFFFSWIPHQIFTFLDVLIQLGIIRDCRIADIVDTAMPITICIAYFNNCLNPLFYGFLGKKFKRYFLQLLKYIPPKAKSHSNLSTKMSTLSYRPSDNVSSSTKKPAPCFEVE
# Protocol: as §1, §2, §3
# [4] = tested on: N (neuronal) (α-BGTX-insensitive) receptor; assay: Receptor binding assay, N (neuronal) (α-BGTX-insensitive); details: rat cerebral cortex, compound A at 10 μM, [3H] cytisine (1.5 nM), 75 min./4° C.
# Protocol: as §1, §2, §3
# D2 receptor = target: T7, D2 receptor (Rattus norvegicus, UniProt P61169); assay: Receptor binding assay, D2; details: rat striatum, compound A at 10 μM, [3H] YM-09151-2 (0.1 nM), 60 min./22° C.
# T7 construct: rat striatum; from tissue; host or cells: rat striatum
# T7 sequence (P61169 whole entry): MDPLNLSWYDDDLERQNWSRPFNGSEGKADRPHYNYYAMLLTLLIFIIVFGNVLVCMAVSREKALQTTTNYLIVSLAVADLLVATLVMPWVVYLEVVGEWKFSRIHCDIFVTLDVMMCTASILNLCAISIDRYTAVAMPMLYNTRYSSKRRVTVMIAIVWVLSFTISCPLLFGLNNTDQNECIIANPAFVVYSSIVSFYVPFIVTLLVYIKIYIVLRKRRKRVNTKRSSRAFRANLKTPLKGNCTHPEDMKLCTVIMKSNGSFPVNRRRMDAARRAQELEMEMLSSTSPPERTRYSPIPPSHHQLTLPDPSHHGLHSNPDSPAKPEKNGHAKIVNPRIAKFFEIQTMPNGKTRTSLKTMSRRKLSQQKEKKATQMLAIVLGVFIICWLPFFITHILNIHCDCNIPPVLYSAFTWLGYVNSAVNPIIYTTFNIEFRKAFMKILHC
# Protocol: as §1, §2, §3
# D1 receptor = target: T8, D1 receptor (Rattus norvegicus, UniProt P18901); assay: Receptor binding assay, D1; details: rat striatum, compound A at 10 μM, [3H] SCH 23390 (0.3 nM), 45 min./22° C.
# T8 construct: rat striatum; from tissue; host or cells: rat striatum
# T8 sequence (P18901 whole entry): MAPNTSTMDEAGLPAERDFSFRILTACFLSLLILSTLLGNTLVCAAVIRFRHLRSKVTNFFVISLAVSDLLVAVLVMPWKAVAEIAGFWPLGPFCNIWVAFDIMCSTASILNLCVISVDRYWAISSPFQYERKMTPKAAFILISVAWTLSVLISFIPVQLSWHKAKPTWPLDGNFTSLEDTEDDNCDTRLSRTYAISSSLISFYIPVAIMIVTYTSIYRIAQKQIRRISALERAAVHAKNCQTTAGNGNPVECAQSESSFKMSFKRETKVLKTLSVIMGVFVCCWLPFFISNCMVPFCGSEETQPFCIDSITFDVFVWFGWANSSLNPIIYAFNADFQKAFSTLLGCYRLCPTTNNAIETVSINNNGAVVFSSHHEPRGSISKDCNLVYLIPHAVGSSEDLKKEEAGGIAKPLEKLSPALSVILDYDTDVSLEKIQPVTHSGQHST
# Protocol: as §1, §2, §3
# H2 receptor = target: T9, H2 receptor (Cavia porcellus, UniProt P47747); assay: Receptor binding assay, H2; details: guinea-pig striatum, compound A at 10 μM, [3H] APT (0.1 nM), 150 min/22° C., read-out: Inhibition rate of compound A for radioligand (%)
# T9 construct: guinea-pig striatum; from tissue; host or cells: guinea-pig striatum
# T9 sequence (P47747 whole entry): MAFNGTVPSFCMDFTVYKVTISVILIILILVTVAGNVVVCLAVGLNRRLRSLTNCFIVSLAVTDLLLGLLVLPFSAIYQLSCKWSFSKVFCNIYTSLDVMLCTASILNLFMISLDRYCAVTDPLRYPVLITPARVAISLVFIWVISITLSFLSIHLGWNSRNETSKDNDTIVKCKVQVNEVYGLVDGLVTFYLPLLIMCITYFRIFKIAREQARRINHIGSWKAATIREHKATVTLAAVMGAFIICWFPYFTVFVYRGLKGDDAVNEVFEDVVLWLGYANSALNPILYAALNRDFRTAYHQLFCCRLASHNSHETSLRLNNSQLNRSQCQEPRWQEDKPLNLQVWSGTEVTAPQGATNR
# Protocol: as §1, §2, §3
# GABAB receptor = target: T10, GABAB receptor (Rattus norvegicus, UniProt Q9Z0U4); assay: Receptor binding assay, GABAB; details: rat cerebral cortex, compound A at 10 μM, [3H] GABA (+40 μM isoguvacine) (10 nM), 10 min./22° C., read-out: Inhibition rate of compound A for radioligand (%)
# T10 construct: rat cerebral cortex; from tissue; host or cells: rat cerebral cortex
# Protocol: as §1, §2, §3
# TRH receptor = assay: Receptor binding assay, TRH; details: rat cerebral cortex, compound A at 10 μM, [3H] Me-TRH (2 nM), 6 h/4° C.
# Protocol: as §1, §2, §3
# [5] = tested on: σ (non-selective) receptor; assay: Receptor binding assay, σ (non-selective); details: rat cerebral cortex, compound A at 10 μM, [3H] DTG (8 nM), 120 min./22° C.
# Protocol: as §1, §2, §3
# [6] = tested on: 5-HT (non-selective) receptor; assay: Receptor binding assay, 5-HT (non-selective); details: rat cerebral cortex, compound A at 10 μM, [3H] serotonin (2 nM), 15 min./37° C.
# Protocol: as §1, §2, §3
# AT2 (h) receptor = target: T11, AT2 (h) receptor (Homo sapiens, UniProt P50052); assay: Receptor binding assay, AT2 (h); details: human recombinant (Hela cells), compound A at 10 μM, [3H] GCP 42112A (0.05 nM), 180 min./37° C., read-out: Inhibition rate of compound A for radioligand (%)
# T11 construct: expressed in transfected cells; host or cells: Hela cells
# T11 sequence (P50052 whole entry): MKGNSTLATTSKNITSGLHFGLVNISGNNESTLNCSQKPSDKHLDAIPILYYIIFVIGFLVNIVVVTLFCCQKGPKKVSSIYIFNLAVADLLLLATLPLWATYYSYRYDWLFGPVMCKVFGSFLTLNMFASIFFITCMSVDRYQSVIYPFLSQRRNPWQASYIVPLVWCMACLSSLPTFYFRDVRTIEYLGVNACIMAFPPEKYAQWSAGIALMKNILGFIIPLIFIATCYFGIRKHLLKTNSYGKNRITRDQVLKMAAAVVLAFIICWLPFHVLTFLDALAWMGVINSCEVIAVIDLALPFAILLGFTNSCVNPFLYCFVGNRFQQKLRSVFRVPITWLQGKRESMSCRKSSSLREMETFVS
# Protocol: as §1, §2, §3
# β2 receptor = target: T12, β2 receptor (Cavia porcellus, UniProt Q8K4Z4); assay: Receptor binding assay, β2; details: guinea-pig lung, compound A at 10 μM, [3H] (−)CGP 12177 (+10 nM CGP 20712A) (0.4 nM), 40 min./22° C., read-out: Inhibition rate of compound A for radioligand (%)
# T12 construct: guinea-pig lung; from tissue; host or cells: guinea-pig lung
# T12 sequence (Q8K4Z4 whole entry): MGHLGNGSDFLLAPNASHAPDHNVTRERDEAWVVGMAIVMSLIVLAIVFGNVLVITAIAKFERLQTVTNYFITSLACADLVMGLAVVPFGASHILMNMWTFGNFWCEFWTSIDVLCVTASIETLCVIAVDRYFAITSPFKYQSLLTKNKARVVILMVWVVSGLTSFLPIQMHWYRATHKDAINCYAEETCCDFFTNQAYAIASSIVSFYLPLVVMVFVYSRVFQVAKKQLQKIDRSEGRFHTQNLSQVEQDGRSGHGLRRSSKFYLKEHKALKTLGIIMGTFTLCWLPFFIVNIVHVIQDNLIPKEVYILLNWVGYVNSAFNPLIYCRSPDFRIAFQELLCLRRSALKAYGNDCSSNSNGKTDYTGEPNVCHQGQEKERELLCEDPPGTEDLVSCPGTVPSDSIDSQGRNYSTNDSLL
# Protocol: as §1, §2, §3
# GABAA receptor = assay: Receptor binding assay, GABAA; details: rat cerebral cortex, compound A at 10 μM, [3H] muscimol (5 nM), 10 min./4° C.
# Protocol: as §1, §2, §3
# NMDA receptor = assay: Receptor binding assay, NMDA; details: rat cerebral cortex, compound A at 10 μM, [3H] CGP 39653 (5 nM), 60 min./4° C.
# Protocol: as §1, §2, §3
# [7] = tested on: α1 (non-selective) receptor; assay: Receptor binding assay, α1 (non-selective); details: rat cerebral cortex, compound A at 10 μM, [3H] prazosin (0.25 nM), 60 min./22° C
# Protocol: as §1, §2, §3
smiles,measurement,setting,value
"O=C(O)/C=C\C(=O)O.OC1CN(CCCOCCc2ccc3sccc3c2)C1 [compound A, 1-(3-(2-(1-benzothiophene-5-yl)ethoxy)propyl)azetidine-3-ol maleate]",Inhibition rate of compound A for radioligand (%),BZD (central) receptor,25%
same,Inhibition rate of compound A for radioligand (%),M2 (h) receptor,19%
same,Ki,[1],16 nM
same,Inhibition rate of compound A for radioligand (%),[2],40%
same,Ki,[3],160 nM
same,Inhibition rate of compound A for radioligand (%),TH receptor,−5%
same,inhibition at 10 µM,M1 receptor,43%
same,inhibition at 10 µM,H1 (h) receptor,-15%
same,inhibition at 10 µM,AT1 (h) receptor,-2%
same,Inhibition rate of compound A for radioligand (%),[4],12%
same,Inhibition rate of compound A for radioligand (%),D2 receptor,21%
same,Inhibition rate of compound A for radioligand (%),D1 receptor,1%
same,inhibition at 10 µM,H2 receptor,72%
same,inhibition at 10 µM,GABAB receptor,4%
same,Inhibition rate of compound A for radioligand (%),TRH receptor,1%
same,Inhibition rate of compound A for radioligand (%),[5],99%
same,Inhibition rate of compound A for radioligand (%),[6],2%
same,inhibition at 10 µM,AT2 (h) receptor,-13%
same,inhibition at 10 µM,β2 receptor,5%
same,Inhibition rate of compound A for radioligand (%),GABAA receptor,−8%
same,Inhibition rate of compound A for radioligand (%),NMDA receptor,16%
same,Inhibition rate of compound A for radioligand (%),[7],36%
